Literature values, collected in patent US9782432B2, “Polymers and methods thereof for wound healing” (RUTGERS, THE STATE UNIVERSITY OF NEW JERSEY, priority 2012, dated 2017).
Where two headings read alike, the source gives them in different places.

What was measured:
adhesions [1] = conditions: 5 mg/kg/day intramuscularly, 7 days
adhesions [2] = tested on: adhesions
adhesions [3] = conditions: 0.35, 0.7 or 1.4 mg every 6 hours for 48 or 96 hours
adhesion formation [4] = conditions: dog, IP injection
adhesion formation [5] = conditions: rats, IP injection
adhesion formation [6] = conditions: rats with intact pineal glands, injections of melatonin
adhesions [7] = conditions: IP injections, rat model
adhesion formation [8] = tested on: adhesion formation

O=C(O)COC(=O)Cc1ccccc1Nc1c(Cl)cccc1Cl [aceclofenac]
decrease in fibroblasts at the injury site (adhesions [1]): 8% | fibrous area, treatment vs control group (adhesions [1]): significant difference

CC(=O)Oc1ccccc1C(=O)O [aspirin, acetylsalicylic acid]
adhesion rate (adhesions [2]; 1.7 mg/kg/day for 5 days after surgery): 44% | adhesion rate (adhesions [2]; 28.0 mg/kg/day for 5 days after surgery): 77% | adhesions vs untreated control (adhesions [3]): no group was significantly different from the untreated control

COc1ccc2[nH]cc(CCNC(C)=O)c2c1 [melatonin]
adhesion formation (adhesion formation [4]): significantly reduce adhesion formation | adhesion formation (adhesion formation [5]): significantly reduce abdominal adhesion formation | adhesions vs control (adhesion formation [6]): significantly less adhesions than the control

vitamin E
efficacy compared with Seprafilm (adhesions [7]): as effective as Seprafilm | reduction of adhesion formation (adhesion formation [8]; IP injection): 80% | reduction of adhesion formation (adhesion formation [8]; oral or intramuscular administration): not when administered orally or intramuscularly | abdominal adhesion formation (adhesion formation [8]; rats, injected intraperitoneally): significantly reduce abdominal adhesion formation
